EP2966448B1, “METHOD FOR THE PREDICTION OR PROGNOSIS OF THE RESPONSE OF A HUMAN SUBJECT SUFFERING FROM CANCER TO TREATMENT WITH AN ANTAGONIST OF THE NK1 RECEPTOR” (priority 2013, dated 2014)
Read-outs that look alike come from different tables or passages of the source.

Tests used:
Gastric carcinoma = experiment: Inhibition of primary tumor cell cultures (48 hours) vs NK1 receptor immunostaining (Example 1); assay type: cell-based; settings: Homo sapiens, 1 micromolar, read-out: Percentage of inhibition of cell cultures
Description: (§1) Cell cultures. To obtain tumor cells from human primary tumors we used the method described in De Bari et al. (De Bari et al. 2001). Briefly, small pieces of the tumors were digested into a hyaluronidase solution (Sigma-Aldrich, USA) at a concentration of 1 mg/ml during 15 minutes at 37°C, and then they were treated with 6 mg/ml of collagenase type IV (Invitrogen) during 2 hours at 37°C. Consecutively, cells were washed, and resuspended in the DMEM culture medium with high concentration of glucose (Dulbecco's Modified Eagle's Medium, Invitrogen) supplemented with 1% of antibiotics-antimycotics (Invitrogen) and with 1% of sodium pyruvate (Invitrogen), and the cells were seeded in culture slides at a concentration of 10.000 cells per square centimeter. When cells reached confluence, the adherent cells were separated using sterile trypsin at 0,5% (Invitrogen) and they were used among passages 3 and 9. For the assays shown next, tumor cells were seeded on slides at a concentration of 25.000 cells per well. A total of 6 wells containing the tumor cells were used as survival control. […] All the cultures were kept during 48 hours and later on recollected for their analysis.
(§2) Immunohistochemistry techniques. The presence of NK1 receptors was also analyzed using immunohistochemistry techniques. Briefly, a sample of each of the cultures of the cell lines used in the present invention, was centrifuged (5 minutes at 1.500 rpm) and the pellet obtained was dehydrated using increasing concentrations of ethanol and, finally, xylol. Then, said dehydrated samples were embedded in paraffin, creating a block of cells. Such paraffin blocks were cut with a microtome at 5 microns thickness, and were placed on microscope slides adequate to perform immunohistochemistry techniques. Consecutively, they were de-paraffinized by immersing them in xylol, to be finally hydrated using a solution containing decreasing concentrations of ethanol, and finally submerged them into water. […] After this, the samples were left to cool down at room temperature for 10 minutes. The endogenous peroxidase activity was blocked with 3% peroxide of hydrogen for 30 minutes at room temperature. After washing the samples with 0.05 M of Tris buffer, they were incubated with 10% non-immune pork serum at for 30 minutes at room temperature. To analyze the expression of NK1 receptors, the cellular samples were incubated in the presence of anti-NK1 antibodies (S8305, Sigma-Aldrich) diluted 1:1000, overnight at 4°C. Afterwards, the samples were washed in Tris buffer 0.05 M at room temperature. The next step was the addition of Envision System-HRP (Dako) reagents for 30 minutes at room temperature. Then, the samples were washed again in Tris buffer 0.05 M and the immunoreactivity was visualized through light microscopy with a chromogenic solution containing 3,3'-Diaminobenzidine (DAB+; Dako, USA). To differentiate the cell nuclei, they were slightly stained with hematoxylin. As negative control, it was used samples not incubated with the primary antibody anti-NK1, which was replaced by non-immune serum. All the samples were evaluated.
(§3) To value the immunostaining in each of the cases six cuts were performed to be analyzed by the immunohistochemistry technique. In each of the six cuts, it was counted cells in 20 fields (magnification 400x) using an Olympus microscope (model CX31). In each field it was counted the total number of cells and the number of cells presenting immunostaining, calculating afterwards the percentage of cells which presented immunostaining.

Pancreatic carcinoma = experiment: as above; assay type: cell-based; settings: Homo sapiens, 1 micromolar, read-out: Percentage of inhibition of cell cultures
Description: as §1, §2, §3

Renal cell carcinoma = experiment: as above; assay type: cell-based; settings: Homo sapiens, 1 micromolar, read-out: Percentage of inhibition of cell cultures
Description: as §1, §2, §3

Breast carcinoma = experiment: as above; assay type: cell-based; settings: Homo sapiens, 1 micromolar, read-out: Percentage of inhibition of cell cultures
Description: as §1, §2, §3

[1] = test system: Carcinoma of the uterine cervix; experiment: as above; assay type: cell-based; settings: Homo sapiens, 1 micromolar, read-out: Percentage of inhibition of cell cultures
Description: as §1, §2, §3

[2] = test system: Lung carcinoma (non small cell type); experiment: as above; assay type: cell-based; settings: Homo sapiens, 1 micromolar, read-out: Percentage of inhibition of cell cultures
Description: as §1, §2, §3

[3] = test system: Thyroid carcinoma (folliculary type); experiment: as above; assay type: cell-based; settings: Homo sapiens, 1 micromolar, read-out: Percentage of inhibition of cell cultures
Description: as §1, §2, §3

[4] = test system: Thyroid carcinoma (papillary type); experiment: as above; assay type: cell-based; settings: Homo sapiens, 1 micromolar, read-out: Percentage of inhibition of cell cultures
Description: as §1, §2, §3

Glioma = experiment: as above; assay type: cell-based; settings: Homo sapiens, 1 micromolar, read-out: Percentage of inhibition of cell cultures
Description: as §1, §2, §3

Fibrosarcoma = experiment: as above; assay type: cell-based; settings: Homo sapiens, 1 micromolar, read-out: Percentage of inhibition of cell cultures
Description: as §1, §2, §3

[5] = test system: Malignant Fibrous Histiocytoma; experiment: as above; assay type: cell-based; settings: Homo sapiens, 1 micromolar, read-out: Percentage of inhibition of cell cultures
Description: as §1, §2, §3

Ewing Sarcoma = experiment: as above; assay type: cell-based; settings: Homo sapiens, 1 micromolar, read-out: Percentage of inhibition of cell cultures
Description: as §1, §2, §3

Neuroblastoma = experiment: as above; assay type: cell-based; settings: Homo sapiens, 1 micromolar, read-out: Percentage of inhibition of cell cultures
Description: as §1, §2, §3

Leukemia B = experiment: as above; assay type: cell-based; settings: Homo sapiens, 1 micromolar, read-out: Percentage of inhibition of cell cultures
Description: as §1, §2, §3

Non Hodgkin Lymphoma B = experiment: as above; assay type: cell-based; settings: Homo sapiens, 1 micromolar, read-out: Percentage of inhibition of cell cultures
Description: as §1, §2, §3

[6] = test system: Gastric carcinoma (Adenocarcinoma); experiment: Inhibition of primary tumor cell cultures vs Kras mutation (Example 2); assay type: cell-based, human; settings: Homo sapiens, Cases with Kras mutated; 100 micromolar; read-out: Percentage of inhibition of cell cultures
Description: (§4) Cell cultures. […] Briefly, small pieces of the tumors were digested into a hyaluronidase solution (Sigma-Aldrich, USA) at a concentration of 1 mg/ml during 15 minutes at 37°C, and then they were treated with 6 mg/ml of collagenase type IV (Invitrogen) during 2 hours at 37°C. Consecutively, cells were washed, and resuspended in the DMEM culture medium with high concentration of glucose (Dulbecco's Modified Eagle's Medium, Invitrogen) supplemented with 1% of antibiotics-antimycotics (Invitrogen) and with 1% of sodium pyruvate (Invitrogen), and the cells were seeded in culture slides at a concentration of 10.000 cells per square centimeter. When cells reached confluence, the adherent cells were separated using sterile trypsin at 0,5% (Invitrogen) and they were used among passages 3 and 9. For the assays shown next, tumor cells were seeded on slides at a concentration of 25.000 cells per well. A total of 6 wells containing the tumor cells were used as survival control. […] All the cultures were kept during 48 hours and later on recollected for their analysis.
(§5) In each case the presence or not of mutations in K-ras gene was determined.
(§6) To determine the existence of mutations in the K-ras gene DNA from cancer tumor cells was extracted from samples obtained from the different cancer tumor cells, using DNA extraction kits from Takara (Madison, WI, US) or Ambion (Huntingdon, Cambridgeshire, United Kingdom), following the manufacturer's instructions, and as it has been previously published (Di Fiore F, et al. 2007). Consecutively it was analyzed by sequencing the exon 2 of the KRAS gene, , by means of PCR amplification from previously extracted cancer tumor DNA, using the following sense primer (SEQ ID NO. 15): 5'-[sequence]-3' and anti-sense primer (SEQ ID NO. 16): 5'-[sequence]-3'. After the purification using the Qiagen extraction kit, the PCR products were sequenced using the Big Dye Terminator Kit V3.1 (Applied Biosystems, Foster City, CA, U.S.) and an ABI Prism 377 or 3100 DNA sequencer (Applied Biosystems). The presence of a heterozygous mutation in the KRAS gene in cancer tumor cells of the cultures was defined as the appearance of a mutant peak of a height of at least a third of the wild type. All the sequence analysis were executed at least twice in two independent PCR.
(§7) The antibody against NK1 receptor (Table 16) was used at 1/50 concentration. The percentages of inhibition are expressed in percentage of variation in relation to control ± standard deviation.

[7] = test system: Pancreatic carcinoma (Adenocarcinoma); experiment: as above; assay type: cell-based, human; settings: Homo sapiens, Cases with Kras mutated; 100 micromolar; read-out: Percentage of inhibition of cell cultures
Description: as §4, §5, §6, §7

[8] = test system: Thyroid carcinoma (papillary carcinoma); experiment: as above; assay type: cell-based, human; settings: Homo sapiens, Cases with Kras mutated; 100 micromolar; read-out: Percentage of inhibition of cell cultures
Description: To obtain tumor cells from human primary tumors we used the method described in De Bari et al. (De Bari et al. 2001). Briefly, small pieces of the tumors were digested into a hyaluronidase solution (Sigma-Aldrich, USA) at a concentration of 1 mg/ml during 15 minutes at 37°C, and then they were treated with 6 mg/ml of collagenase type IV (Invitrogen) during 2 hours at 37°C. Consecutively, cells were washed, and resuspended in the DMEM culture medium with high concentration of glucose (Dulbecco's Modified Eagle's Medium, Invitrogen) supplemented with 1% of antibiotics-antimycotics (Invitrogen) and with 1% of sodium pyruvate (Invitrogen), and the cells were seeded in culture slides at a concentration of 10.000 cells per square centimeter. When cells reached confluence, the adherent cells were separated using sterile trypsin at 0,5% (Invitrogen) and they were used among passages 3 and 9. For the assays shown next, tumor cells were seeded on slides at a concentration of 25.000 cells per well. A total of 6 wells containing the tumor cells were used as survival control. […] All the cultures were kept during 48 hours and later on recollected for their analysis.
as §5, §6, §7

[9] = test system: Undifferentiated Pleomorphic Sarcoma (malignant fibrous histiocytoma grade 3); experiment: as above; assay type: cell-based, human; settings: Homo sapiens, Cases with Kras mutated; 100 micromolar; read-out: Percentage of inhibition of cell cultures
Description: as §1, §5, §6
(§8) The percentages of inhibition are expressed in percentage of variation in relation to control ± standard deviation.

[10] = test system: Melanoma (Nodular Melanoma); experiment: as above; assay type: cell-based, human; settings: Homo sapiens, Cases with Kras mutated; 100 micromolar; read-out: Percentage of inhibition of cell cultures
Description: as §1, §5, §6, §8

[11] = test system: Non Hodgkin Lymphoma B (diffuse B cell lymphoma); experiment: as above; assay type: cell-based, human; settings: Homo sapiens, B-cell, Cases with Kras mutated; 100 micromolar; read-out: Percentage of inhibition of cell cultures
Description: as §1, §5, §6, §8

Burkitt Lymphoma = experiment: as above; assay type: cell-based, human; settings: Homo sapiens, Cases with Kras mutated; 100 micromolar; read-out: Percentage of inhibition of cell cultures
Description: as §1, §5, §6, §7

[12] = test system: human primary tumor cells; experiment: Inhibition of primary tumor cell cultures vs absence or presence of AKT protein (Example 4; tumor type per table line); assay type: cell-based; settings: Non Hodgkin Lymphoma B (diffuse B cell lymphoma); cases with presence of AKT; 100 micromolar
Description: as §4
Afterwards, the cells were cultured in presence of several antagonists of the NK1 receptor.
In each case it was determined the presence or absence of the AKT protein effector downstream in the PI3 Kinases pathway.
To determine the presence of the AKT protein in the different cultures Western Blot technique was performed (following the description in example 1-Western Blot section), but using as primary antibody with reference: Akt (pan) (11E7) Rabbit mAb (4685, Cell Signalling).
The antibody against NK1 receptor (Table 26) was used at 1/50 concentration. The percentages of inhibition are expressed in percentage of variation in relation to control ± standard deviation.

Endometrium carcinoma = experiment: cells; settings: Homo sapiens, 1 micromolar
Description: as §1, §2, §3

[13] = NK1 receptor immunostaining Group 1 (less than 20% of the cells)
[14] = NK1 receptor immunostaining Group 2 (20-80% of the cells)
[15] = NK1 receptor immunostaining Group 3 (more than 80% of the cells)
[16] = NK1 receptor immunostaining Intensity grade 1
[17] = NK1 receptor immunostaining Intensity grade 2
[18] = NK1 receptor immunostaining Intensity grade 3

Compound: C[C@@H](O[C@H]1OCCN(Cc2n[nH]c(=O)[nH]2)[C@H]1c1ccc(F)cc1)c1cc(C(F)(F)F)cc(C(F)(F)F)c1 [Aprepitant]
- inhibition at 1 µM (Gastric carcinoma; [13]): 10 ± 3%
- inhibition at 1 µM (Gastric carcinoma; [14]): 45 ± 3%
- inhibition at 1 µM (Gastric carcinoma; [15]): 92 ± 3%
- inhibition at 1 µM (Gastric carcinoma; [16]): 25 ± 6%
- inhibition at 1 µM (Gastric carcinoma; [17]): 57 ± 5%
- inhibition at 1 µM (Gastric carcinoma; [18]): 96 ± 4%
- inhibition at 1 µM (Pancreatic carcinoma; [13]): 12 ± 3%
- inhibition at 1 µM (Pancreatic carcinoma; [14]): 47 ± 1%
- inhibition at 1 µM (Pancreatic carcinoma; [15]): 94 ± 6%
- inhibition at 1 µM (Pancreatic carcinoma; [16]): 27 ± 7%
- inhibition at 1 µM (Pancreatic carcinoma; [17]): 56 ± 5%
- inhibition at 1 µM (Pancreatic carcinoma; [18]): 94 ± 3%
- inhibition at 1 µM (Renal cell carcinoma; [13]): 10 ± 3%
- inhibition at 1 µM (Renal cell carcinoma; [14]): 45 ± 4%
- inhibition at 1 µM (Renal cell carcinoma; [15]): 93 ± 6%
- inhibition at 1 µM (Renal cell carcinoma; [16]): 27 ± 6%
- inhibition at 1 µM (Renal cell carcinoma; [17]): 57 ± 6%
- inhibition at 1 µM (Renal cell carcinoma; [18]): 95 ± 6%
- inhibition at 1 µM (Breast carcinoma; [13]): 11 ± 1%
- inhibition at 1 µM (Breast carcinoma; [14]): 46 ± 3%
- inhibition at 1 µM (Breast carcinoma; [15]): 94 ± 5%
- inhibition at 1 µM (Breast carcinoma; [16]): 28 ± 6%
- inhibition at 1 µM (Breast carcinoma; [17]): 58 ± 5%
- inhibition at 1 µM (Breast carcinoma; [18]): 95 ± 7%
- inhibition at 1 µM [1, 13]: 10 ± 2%
- inhibition at 1 µM [1, 14]: 48 ± 5%
- inhibition at 1 µM [1, 15]: 95 ± 5%
- inhibition at 1 µM [1, 16]: 27 ± 4%
- inhibition at 1 µM [1, 17]: 56 ± 4%
- inhibition at 1 µM [1, 18]: 95 ± 4%
- inhibition at 1 µM [2, 13]: 9 ± 3%
- inhibition at 1 µM [2, 14]: 41 ± 3%
- inhibition at 1 µM [2, 15]: 94 ± 7%
- inhibition at 1 µM [2, 16]: 28 ± 5%
- inhibition at 1 µM [2, 17]: 57 ± 5%
- inhibition at 1 µM [2, 18]: 95 ± 3%
- inhibition at 1 µM [3, 13]: 10 ± 2%
- inhibition at 1 µM [3, 14]: 45 ± 2%
- inhibition at 1 µM [3, 15]: 97 ± 5%
- inhibition at 1 µM [3, 16]: 26 ± 6%
- inhibition at 1 µM [3, 17]: 57 ± 5%
- inhibition at 1 µM [3, 18]: 95 ± 5%
- inhibition at 1 µM [4, 13]: 10 ± 3%
- inhibition at 1 µM [4, 14]: 47 ± 3%
- inhibition at 1 µM [4, 15]: 97 ± 6%
- inhibition at 1 µM [4, 16]: 27 ± 6%
- inhibition at 1 µM [4, 17]: 56 ± 4%
- inhibition at 1 µM (Glioma; [13]): 11 ± 4%
- inhibition at 1 µM (Glioma; [14]): 47 ± 4%
- inhibition at 1 µM (Glioma; [15]): 94 ± 6%
- inhibition at 1 µM (Glioma; [16]): 28 ± 7%
- inhibition at 1 µM (Glioma; [17]): 55 ± 6%
- inhibition at 1 µM (Glioma; [18]): 97 ± 4%
- inhibition at 1 µM (Fibrosarcoma; [13]): 10 ± 3%
- inhibition at 1 µM (Fibrosarcoma; [14]): 48 ± 3%
- inhibition at 1 µM (Fibrosarcoma; [15]): 96 ± 5%
- inhibition at 1 µM (Fibrosarcoma; [16]): 27 ± 6%
- inhibition at 1 µM (Fibrosarcoma; [17]): 54 ± 5%
- inhibition at 1 µM (Fibrosarcoma; [18]): 95 ± 5%
- inhibition at 1 µM [5, 13]: 11 ± 2%
- inhibition at 1 µM [5, 14]: 47 ± 2%
- inhibition at 1 µM [5, 15]: 95 ± 6%
- inhibition at 1 µM [5, 16]: 28 ± 7%
- inhibition at 1 µM [5, 17]: 56 ± 5%
- inhibition at 1 µM [5, 18]: 94 ± 3%
- inhibition at 1 µM (Ewing Sarcoma; [13]): 11 ± 2%
- inhibition at 1 µM (Ewing Sarcoma; [14]): 48 ± 6%
- inhibition at 1 µM (Ewing Sarcoma; [15]): 94 ± 6%
- inhibition at 1 µM (Ewing Sarcoma; [16]): 27 ± 6%
- inhibition at 1 µM (Ewing Sarcoma; [17]): 57 ± 4%
- inhibition at 1 µM (Ewing Sarcoma; [18]): 95 ± 6%
- inhibition at 1 µM (Neuroblastoma; [13]): 10 ± 3%
- inhibition at 1 µM (Neuroblastoma; [14]): 44 ± 5%
- inhibition at 1 µM (Neuroblastoma; [15]): 97 ± 5%
- inhibition at 1 µM (Neuroblastoma; [16]): 27 ± 6%
- inhibition at 1 µM (Neuroblastoma; [17]): 57 ± 6%
- inhibition at 1 µM (Neuroblastoma; [18]): 97 ± 5%
- inhibition at 1 µM (Leukemia B; [13]): 11 ± 2%
- inhibition at 1 µM (Leukemia B; [14]): 43 ± 4%
- inhibition at 1 µM (Leukemia B; [15]): 95 ± 4%
- inhibition at 1 µM (Leukemia B; [16]): 28 ± 5%
- inhibition at 1 µM (Leukemia B; [17]): 54 ± 5%
- inhibition at 1 µM (Leukemia B; [18]): 95 ± 6%
- inhibition at 1 µM (Non Hodgkin Lymphoma B; [13]): 10 ± 2%
- inhibition at 1 µM (Non Hodgkin Lymphoma B; [14]): 47 ± 4%
- inhibition at 1 µM (Non Hodgkin Lymphoma B; [15]): 96 ± 5%
- inhibition at 1 µM (Non Hodgkin Lymphoma B; [16]): 27 ± 5%
- inhibition at 1 µM (Non Hodgkin Lymphoma B; [17]): 55 ± 5%
- inhibition at 1 µM (Non Hodgkin Lymphoma B; [18]): 97 ± 6%
- inhibition at 100 µM [6]: 24 ± 3%
- inhibition at 100 µM [7]: 22 ± 4%
- inhibition at 100 µM [8]: 25 ± 4%
- inhibition at 100 µM [9]: 24 ± 3%
- inhibition at 100 µM [10]: 26 ± 4%
- inhibition at 100 µM [11]: 27 ± 5%
- inhibition at 100 µM (Burkitt Lymphoma): 24 ± 3%
- Percentage of inhibition of cell cultures [12]: 95±3 percentage
- inhibition at 1 µM (Endometrium carcinoma; read-out: Percentage of inhibition of cell cultures, NK1 receptor immunostaining Group 1 (less than 20% of the cells)): 12 ± 2%
- inhibition at 1 µM (Endometrium carcinoma; read-out: Percentage of inhibition of cell cultures, NK1 receptor immunostaining Group 2 (20-80% of the cells)): 49 ± 2%
- inhibition at 1 µM (Endometrium carcinoma; read-out: Percentage of inhibition of cell cultures, NK1 receptor immunostaining Group 3 (more than 80% of the cells)): 95 ± 4%
- inhibition at 1 µM (Endometrium carcinoma; read-out: Percentage of inhibition of cell cultures, NK1 receptor immunostaining Intensity grade 1): 25 ± 7%
- inhibition at 1 µM (Endometrium carcinoma; read-out: Percentage of inhibition of cell cultures, NK1 receptor immunostaining Intensity grade 2): 59 ± 5%
